The record followed here is patent US20250026724A1, “(1,4,5-TRISUBSTITUTED 1H-PYRAZOL-3-YL)OXY-2-ALKYLTHIOALKYL ACIDS AND -ALKYL ACID DERIVATIVES, SALTS THEREOF AND USE THEREOF AS ACTIVE HERBICIDAL INGREDIENTS” (BAYER AKTIENGESELLSCHAFT, priority 2021, published 2025).

Common to all, as to type: in vivo
The subject of series [1] is Triticum aestivum (TRZAS). The series can be described thus: Post-emergence crop plant compatibility, greenhouse pot trial. As for the experimental part:
Seeds of monocotyledonous and dicotyledonous weeds and crop plants are placed in sandy loam in plastic or organic planting pots, covered with soil and cultivated in a greenhouse under controlled growth conditions. 2 to 3 weeks after sowing, the trial plants are treated at the one-leaf stage. The compounds of the invention, formulated in the form of wettable powders (WP) or as emulsion concentrates (EC), are then sprayed onto the green parts of the plants as aqueous suspension or emulsion with addition of 0.5% additive at a water application rate equivalent to 600 l/ha. After about 3 weeks of keeping the trial plants in the greenhouse under optimum growth conditions, the effect of the preparations is rated visually in comparison to untreated controls. For example, 100% activity=the plants have died, 0% activity=like control plants.
The observed effects on selected crop plants are reported here in comparison to the untreated controls (values in %). The appendices “a”, “b” and “c” give differentiation by dosage used with otherwise the same useful plants tested.
As shown by results from Tables B1 to B19, inventive compounds of the general formula (I) in the case of post-emergence treatment have good herbicidal efficacy against harmful plants, for example Abutilon theophrasti (ABUTH), Alopecurus myosuroides (ALOMY), Amaranthus retroflexus (AMARE), Avena fatua (AVEFA), Digitaria sanguinalis (DIGSA), Echinochloa crus-galli (ECHCG), Bassia scoparia (KCHSC), Lolium rigidum (LOLRI), Matricaria inodora (MATIN), Pharbitis purpurea (PHBPU), Polygonum convolvulus (POLCO), Setaria viridis (SETVI), Veronica persica (VERPE) and Viola tricolor (VIOTR) at an application rate of 320 g of active substance or less per hectare, and good crop plant compatibility in the case of organisms such as Oryza sativa (ORYSA), Zea mays (ZEAMX), Brassica napus (BRSNW), Glycine max (GLXMA) and Triticum aestivum (TRZAS) at an application rate of 320 g or less per hectare.

A further series relates to Bassia scoparia (KCHSC). Put plainly: Post-emergence herbicidal action, greenhouse pot trial. In outline: (§1)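 Greenhouse-grown plants, sown in sandy loam, sprayed at the one-leaf stage (2–3 weeks after sowing) with WP or EC formulations in water plus 0.5% additive, 600 l/ha. Rates of 320 g/ha or lower. Visual rating after about 3 weeks versus untreated controls (100% = dead, 0% = as control).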

Series [2] deals with Alopecurus myosuroides (ALOMY). Described as above. The note with it: 320 g/ha, visual rating after about 3 weeks. A digest of the protocol:
as §1

For series [3], the system named is Amaranthus retroflexus (AMARE). The series is described as above. The note with it: visual rating after about 3 weeks; for pest or weed control at 80 g/ha / pest or weed control at 320 g/ha: Amaranthus retroflexus, 504 h; for pest or weed control at 80 g/ha: read-out: Post-emergence effect at 80 g/ha against AMARE in %; for pest or weed control at 320 g/ha: read-out: Post-emergence effect at 320 g/ha against AMARE in %. In outline:
as §1

Another series relates to Lolium rigidum (LOLRI). The description is as above. The note with it: 320 g/ha, visual rating after about 3 weeks. In outline:
as §1

The next series has as its system Setaria viridis (SETVI). Described as above. The note with it: visual rating after about 3 weeks; for pest or weed control at 320 g/ha: Setaria viridis, 504 h, read-out: Post-emergence effect at 320 g/ha against SETVI in %. In outline:
as §1

Series [4] has as its system Echinochloa crus-galli (ECHCG). The series is described as above. The note with it: 320 g/ha, visual rating after about 3 weeks; for pest or weed control at 320 g/ha: Echinochloa crus-galli, 504 h, read-out: Post-emergence effect at 320 g/ha against ECHCG in %. In outline: as §1
In series [5] the test system is Matricaria inodora (MATIN). The series is described as above. The following applies: visual rating after about 3 weeks; for pest or weed control at 80 g/ha / pest or weed control at 320 g/ha: Tripleurospermum inodorum, 504 h; for pest or weed control at 80 g/ha: read-out: Post-emergence effect at 80 g/ha against MATIN in %; for pest or weed control at 320 g/ha: read-out: Post-emergence effect at 320 g/ha against MATIN in %. In outline: as §1

Series [6] concerns Digitaria sanguinalis (DIGSA). The description is as above. The note with it: visual rating after about 3 weeks; for pest or weed control at 320 g/ha: Digitaria sanguinalis, 504 h, read-out: Post-emergence effect at 320 g/ha against DIGSA in %. A digest of the protocol:
as §1

For series [7], the system named is Abutilon theophrasti (ABUTH). Described as above. The note with it: visual rating after about 3 weeks; for pest or weed control at 320 g/ha: read-out: Post-emergence effect at 320 g/ha against ABUTH in %. A digest of the protocol: as §1
In the next series the test system is Avena fatua (AVEFA). Described as above. The following applies: 320 g/ha, visual rating after about 3 weeks. A digest of the protocol:
as §1

In series [8] the test system is Polygonum convolvulus (POLCO). Described as above. The following applies: visual rating after about 3 weeks; for pest or weed control at 320 g/ha: read-out: Post-emergence effect at 320 g/ha against POLCO in %. A digest of the protocol: as §1
Series [9] has as its system Pharbitis purpurea (PHBPU). The series is described as above. The following applies: Ipomoea purpurea, 504 h, visual rating after about 3 weeks; for pest or weed control at 320 g/ha: read-out: Post-emergence effect at 320 g/ha against PHBPU in %. A digest of the protocol: as §1
The next series concerns Viola tricolor (VIOTR). Described as above. The following applies: Viola tricolor, 504 h, read-out: Post-emergence effect against VIOTR. In outline: as §1
A further series deals with Veronica persica (VERPE). The description is as above. The following applies: visual rating after about 3 weeks; for pest or weed control at 320 g/ha: Veronica persica, 504 h, read-out: Post-emergence effect at 320 g/ha against VERPE in %. A digest of the protocol:
as §1

Setting [10] is: Abutilon theophrasti, 504 h, 320 g/ha.
[11] abbreviates: Fallopia convolvulus, 504 h, 320 g/ha.

On to `COC(=O)CCOC(=O)C(Oc1nn(-c2ncccc2F)c(-c2ccc(F)nc2)c1Br)SC` (racemic) [Example I-32], for which the “Post-emergence effect against TRZAS (crop plant compatibility)” value in [1] (20 g/ha, post-emergence, in comparison to untreated controls) is 0%. Further, the “Post-emergence effect against KCHSC” value with Bassia scoparia (KCHSC) (80 g/ha) came out at 80%; in the series on Bassia scoparia (KCHSC) (320 g/ha), 90%. For the same compound, in [2], the “Post-emergence effect at 320 g/ha against ALOMY in %” value was 90%. In series [3] (80 g/ha), the “Post-emergence effect at 80 g/ha against AMARE in %” value is 80%. Also, the “Post-emergence effect at 320 g/ha against AMARE in %” value in [3] (320 g/ha) is given as 80%. Also, in the series on Lolium rigidum (LOLRI), the “Post-emergence effect at 320 g/ha against LOLRI in %” value was found to be 80%. Further, the “Post-emergence effect at 320 g/ha against SETVI in %” value with Setaria viridis (SETVI) (320 g/ha) was 80%. In addition, the “Post-emergence effect at 320 g/ha against ECHCG in %” value in series [4] is 90%. Moreover, the “Post-emergence effect at 80 g/ha against MATIN in %” value in series [5] (80 g/ha) was determined as 80%. In addition, the “Post-emergence effect at 320 g/ha against MATIN in %” value in series [5] (320 g/ha) was 80%. Also, the “Post-emergence effect at 80 g/ha against DIGSA in %” value in series [6] (80 g/ha) is reported as 90%. Besides, the “Post-emergence effect at 320 g/ha against DIGSA in %” value in [6] (320 g/ha) was found to be 90%. Also, the “Post-emergence effect at 80 g/ha against ABUTH in %” value in series [7] (80 g/ha) amounted to 80%. In addition, in series [7] (320 g/ha), the “Post-emergence effect at 320 g/ha against ABUTH in %” value came out at 90%. In the series on Avena fatua (AVEFA), the “Post-emergence effect at 320 g/ha against AVEFA in %” value worked out at 90%. The “Post-emergence effect at 80 g/ha against POLCO in %” value in series [8] (80 g/ha) worked out at 80%. Further, the “Post-emergence effect at 320 g/ha against POLCO in %” value in series [8] (320 g/ha) is given as 90%.

As for `CCOC(=O)C(Oc1nn(-c2cc(F)ccc2F)c(-c2cncc(F)c2)c1Br)SC` (stereo not shown) [Example I-03, ethyl {[4-bromo-1-(2,5-difluorophenyl)-5-(5-fluoropyridin-3-yl)-1H-pyrazol-3-yl]oxy}(methylsulfanyl)acetate], the “Post-emergence effect at 320 g/ha against TRZAS in %” value in series [1] (in vivo) worked out at 20%. The pest or weed control at 320 g/ha in series [9] stood at 80%; in the series on Setaria viridis (SETVI) (320 g/ha), 90%; in series [4] it was 90%; in the series on Viola tricolor (VIOTR), 90%; in series [5] (320 g/ha), 90%; in series [6] (320 g/ha), 80%. Further, in series [7] (setting [10]), the pest or weed control at 320 g/ha was 80%. In addition, the “Post-emergence effect at 80 g/ha against SETVI in %” value with Setaria viridis (SETVI) (80 g/ha) is given as 80%. Besides, the pest or weed control at 20 g/ha in the series with Viola tricolor (VIOTR) amounted to 80%. The figures for the pest or weed control at 80 g/ha (with Viola tricolor (VIOTR); in series [5] (80 g/ha)) were 90% and 80%, respectively.

Regarding `COC(=O)C(Oc1nn(-c2cc(F)ccc2F)c(-c2cncc(F)c2)c1C1CC1)SC` (stereo not shown) [Example I-08], the pest or weed control at 80 g/ha in series [3] (80 g/ha) worked out at 80%; in [9] (80 g/ha, read-out: Post-emergence effect at 80 g/ha against PHBPU in %), 80%; with Viola tricolor (VIOTR), 90%; in series [8] (Fallopia convolvulus, 504 h, 80 g/ha, read-out: Post-emergence effect at 80 g/ha against POLCO in %), 90%. In addition, the pest or weed control at 320 g/ha in series [3] (320 g/ha) is 80%; in series [9] it was 90%; in the series on Setaria viridis (SETVI) (320 g/ha), 90%; in [4], 80%; in the series on Viola tricolor (VIOTR), 90%; in the series with Veronica persica (VERPE), 90%. Moreover, the pest or weed control at 320 g/ha is 80% in [5] (320 g/ha) and 90% in series [8] (setting [11]). In addition, the pest or weed control at 20 g/ha in the series with Viola tricolor (VIOTR) amounted to 90%. The “Post-emergence effect at 80 g/ha against VERPE in %” value in the series on Veronica persica (VERPE) (80 g/ha) is 80%.

For the compound `CSC(Oc1nn(-c2ncccc2F)c(-c2cncc(F)c2)c1C1CC1)C(=O)O` (stereo not shown) [Example I-44], the pest or weed control at 320 g/ha was determined as 90% with Bassia scoparia (KCHSC) (Bassia scoparia, 504 h, 320 g/ha, read-out: Post-emergence effect against KCHSC); 90% in series [3] (320 g/ha); 80% with Setaria viridis (SETVI) (320 g/ha); 90% in [4]; 90% in the series with Viola tricolor (VIOTR); 90% in the series on Veronica persica (VERPE). Besides, the pest or weed control at 320 g/ha in [5] (320 g/ha) stood at 90%; in series [7] (setting [10]), 90%; in the series with Avena fatua (AVEFA) (Avena fatua, 504 h, read-out: Post-emergence effect at 320 g/ha against AVEFA in %) it was 90%; in series [8] (setting [11]) it was 80%. The “Post-emergence effect at 20 g/ha against AMARE in %” value in [3] (20 g/ha) worked out at 80%. In addition, the pest or weed control at 80 g/ha in series [3] (80 g/ha) was 90%; with Viola tricolor (VIOTR), 90%; in series [5] (80 g/ha), 80%. In addition, in the series on Viola tricolor (VIOTR), the pest or weed control at 20 g/ha turned out to be 90%.

`CCOC(=O)C(Oc1nn(-c2ccccc2F)c(-c2ccc(F)nc2)c1C(F)(F)F)SC` (stereo not shown) [Example I-46]: the pest or weed control at 80 g/ha was 80% in [3] (80 g/ha); 80% in the series on Viola tricolor (VIOTR); 80% in series [7] (Abutilon theophrasti, 504 h, 80 g/ha, read-out: Post-emergence effect at 80 g/ha against ABUTH in %). In addition, the pest or weed control at 320 g/ha in [3] (320 g/ha) was 80%; in the series with Lolium rigidum (LOLRI) (Lolium rigidum, 504 h, read-out: Post-emergence effect at 320 g/ha against LOLRI in %) it was 100%; with Setaria viridis (SETVI) (320 g/ha), 80%; in series [4] it was 90%; in the series with Viola tricolor (VIOTR), 90%; in the series with Veronica persica (VERPE), 80%. Further, the pest or weed control at 320 g/ha is 90% in series [5] (320 g/ha), 80% in series [6] (320 g/ha), 80% in [7] (setting [10]) and 80% in [8] (setting [11]). The pest or weed control at 20 g/ha in the series on Viola tricolor (VIOTR) turned out to be 80%.
